A word on the IC50: it is the concentration at which inhibition is half-maximal.

Each structure is given as a SMILES string.

The target of this assay is Beta-3 Adrenergic Receptor (Homo sapiens (Human), UniProt P13945). Kind of assay: Homogeneous Time-Resolved Fluorescence (HTRF) cAMP antagonist assay, IC50 determination. In kind it is cell-based. As to conditions: CHO-K1 cells stably expressing recombinant receptor, isoproterenol at EC90. The method, boiled down: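 CHO-K1 cells stably expressing the recombinant receptor were preincubated with compound (10-point, 5-fold dilutions; top final typically 10 or 100 μM) in PBS with 1 mM IBMX, then stimulated with isoproterenol at its EC90 for 1 h at room temperature. cAMP was read by HTRF against an on-plate standard curve.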
Chain of Beta-3 Adrenergic Receptor (P13945 whole entry, species assumed): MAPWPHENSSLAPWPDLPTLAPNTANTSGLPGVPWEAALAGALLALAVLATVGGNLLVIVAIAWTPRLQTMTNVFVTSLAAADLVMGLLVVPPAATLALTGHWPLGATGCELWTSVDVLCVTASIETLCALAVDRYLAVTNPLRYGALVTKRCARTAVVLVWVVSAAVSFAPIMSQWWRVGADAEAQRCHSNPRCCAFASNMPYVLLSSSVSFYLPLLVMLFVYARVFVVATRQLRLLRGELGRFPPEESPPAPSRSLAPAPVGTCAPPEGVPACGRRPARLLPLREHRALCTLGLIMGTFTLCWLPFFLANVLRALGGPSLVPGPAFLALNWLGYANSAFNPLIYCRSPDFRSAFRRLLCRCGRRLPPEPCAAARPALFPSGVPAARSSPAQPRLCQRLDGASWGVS
(In general: TR-FRET usually uses a lanthanide donor and a delayed reading to cut background.)
For `CC(=O)NS(=O)(=O)c1cccc(OC[C@@H](O)CNC2COC3(CCN(S(=O)(=O)c4ccc5ccccc5c4)CC3)C2)c1` (stereo partly drawn) [Compound 318, N-(3-((2S)-2-hydroxy-3-(8-(naphthalen-2-ylsulfonyl)-1-oxa-8-azaspiro[4.5]decan-3-ylamino)propoxy)phenylsulfonyl)acetamide], the IC50 came to 2180 nM.

Regarding `NS(=O)(=O)c1cccc(OC[C@@H](O)CN[C@H]2COC3(CCN(S(=O)(=O)c4ccc5ncccc5c4)CC3)C2)c1` [Compound 566, 3-((S)-2-hydroxy-3-((R)-8-(quinolin-6-ylsulfonyl)-1-oxa-8-azaspiro[4.5]decan-3-ylamino)propoxy)benzenesulfonamide], the IC50 is 78.6 nM.

Take `CNS(=O)(=O)c1cccc(OC[C@@H](O)CNC2COC3(CCN(S(=O)(=O)c4cccc(-c5ccc(CNCC#N)cc5)c4)CC3)C2)c1` (stereo partly drawn) [Compound 338, 3-((2S)-3-(8-(4′-((cyanomethylamino)methyl)biphenyl-3-ylsulfonyl)-1-oxa-8-azaspiro[4.5]decan-3-ylamino)-2-hydroxypropoxy)-N-methylbenzenesulfonamide]: the IC50 is 47.1 nM.

Turning to `NS(=O)(=O)c1cccc(OC[C@@H](O)CN[C@H]2COC3(CCN(S(=O)(=O)c4c[nH]c5cc(F)ccc5c4=O)CC3)C2)c1` [Compound 555, 3-((S)-3-((R)-8-(7-fluoro-4-oxo-1,4-dihydroquinolin-3-ylsulfonyl)-1-oxa-8-azaspiro[4.5]decan-3-ylamino)-2-hydroxypropoxy)benzenesulfonamide], the IC50 came out at 21.3 nM.

With `CNS(=O)(=O)c1cccc(OC[C@@H](O)CNC2COC3(CCN(S(=O)(=O)c4cccc(-c5ccc(OCCCN(C)C)nc5)c4)CC3)C2)c1` (stereo partly drawn) [Compound 372, 3-((2S)-3-(8-(3-(6-(3-(dimethylamino)propoxy)pyridin-3-yl)phenylsulfonyl)-1-oxa-8-azaspiro[4.5]decan-3-ylamino)-2-hydroxypropoxy)-N-methylbenzenesulfonamide], the IC50 was determined as 41.8 nM.

As to `CNS(=O)(=O)c1cccc(OC[C@@H](O)CN[C@H]2COC3(CCN(S(=O)(=O)c4cnc5[nH]c(=O)[nH]c5c4)CC3)C2)c1` [Compound 477, 3-((S)-2-hydroxy-3-((R)-8-(2-oxo-2,3-dihydro-1H-imidazo[4,5-b]pyridin-6-ylsulfonyl)-1-oxa-8-azaspiro[4.5]decan-3-ylamino)propoxy)-N-methylbenzenesulfonamide], the IC50 came to 52.3 nM.

Regarding `CNS(=O)(=O)c1cccc(OC[C@@H](O)CNC2COC3(CCN(S(=O)(=O)c4ccc(C#N)cc4)CC3)C2)c1` (stereo partly drawn) [Compound 44, 3-((2S)-3-(8-(4-cyanophenylsulfonyl)-1-oxa-8-azaspiro[4.5]decan-3-ylamino)-2-hydroxypropoxy)-N-methylbenzenesulfonamide], the IC50 was 34.1 nM.

Consider `O=S(=O)(NC1(CO)CC1)c1cccc(OC[C@@H](O)CNC2COC3(CCN(S(=O)(=O)c4ccc5ccccc5c4)CC3)C2)c1` (stereo partly drawn) [Compound 99, 3-((2S)-2-hydroxy-3-(8-(naphthalen-2-ylsulfonyl)-1-oxa-8-azaspiro[4.5]decan-3-ylamino)propoxy)-N-(1-(hydroxymethyl)cyclopropyl)benzenesulfonamide], for which the IC50 was 121 nM.

In the case of `C[C@H](O)CNS(=O)(=O)c1cccc(OC[C@@H](O)CN[C@H]2COC3(CCN(S(=O)(=O)c4cnc5c(c4)N(C)CCO5)CC3)C2)c1` [Compound 434, 3-((S)-2-hydroxy-3-((R)-8-(1-methyl-2,3-dihydro-1H-pyrido[2,3-b][1,4]oxazin-7-ylsulfonyl)-1-oxa-8-azaspiro[4.5]decan-3-ylamino)propoxy)-N—((S)-2-hydroxypropyl)benzenesulfonamide], the IC50 was 578 nM.

In the case of `CNS(=O)(=O)c1cccc(OC[C@@H](O)CNC2COC3(CCN(S(=O)(=O)c4cn(C)c(C)n4)CC3)C2)c1` (stereo partly drawn) [Compound 119, 3-((2S)-3-(8-(1,2-dimethyl-1H-imidazol-4-ylsulfonyl)-1-oxa-8-azaspiro[4.5]decan-3-ylamino)-2-hydroxypropoxy)-N-methylbenzenesulfonamide], the IC50 turned out to be 203 nM.

For the molecule `CNS(=O)(=O)c1cccc(OC[C@@H](O)CNC2COC3(CCN(S(=O)(=O)c4cccc(-c5ccc(CN)nc5)c4)CC3)C2)c1` (stereo partly drawn) [Compound 387, 3-((2S)-3-(8-(3-(6-(aminomethyl)pyridin-3-yl)phenylsulfonyl)-1-oxa-8-azaspiro[4.5]decan-3-ylamino)-2-hydroxypropoxy)-N-methylbenzenesulfonamide], the IC50 stood at 30.8 nM.

As to `CNS(=O)(=O)c1cccc(OC[C@@H](O)CNC2COC3(CCN(S(=O)(=O)c4ccc5c(c4)OCCO5)CC3)C2)c1` (stereo partly drawn) [Compound 332, 3-((2S)-3-(8-(2,3-dihydrobenzo[b][1,4]dioxin-6-ylsulfonyl)-1-oxa-8-azaspiro[4.5]decan-3-ylamino)-2-hydroxypropoxy)-N-methylbenzenesulfonamide], the IC50 turned out to be 17.9 nM.

As for `CNS(=O)(=O)c1cccc(OC[C@@H](O)CNC2COC3(CCN(S(=O)(=O)c4ccc(F)c(C)c4)CC3)C2)c1` (stereo partly drawn) [Compound 149, 3-((2S)-3-(8-(4-fluoro-3-methylphenylsulfonyl)-1-oxa-8-azaspiro[4.5]decan-3-ylamino)-2-hydroxypropoxy)-N-methylbenzenesulfonamide], the IC50 is 20.6 nM.

On to `CC(C)CCNS(=O)(=O)c1cccc(OC[C@@H](O)CNC2COC3(CCN(S(=O)(=O)c4ccc5ccccc5c4)CC3)C2)c1` (stereo partly drawn) [Compound 98, 3-((2S)-2-hydroxy-3-(8-(naphthalen-2-ylsulfonyl)-1-oxa-8-azaspiro[4.5]decan-3-ylamino)propoxy)-N-isopentylbenzenesulfonamide], for which the IC50 is 71.1 nM.

Take `CCOc1ccc(-c2ccc(CNC(C)C)cc2)cc1S(=O)(=O)N1CCC2(CC1)C[C@H](NC[C@H](O)COc1cccc(S(=O)(=O)NC)c1)CO2` [Compound 438, 3-((S)-3-((S)-8-(4-ethoxy-4′-((isopropylamino)methyl)biphenyl-3-ylsulfonyl)-1-oxa-8-azaspiro[4.5]decan-3-ylamino)-2-hydroxypropoxy)-N-methylbenzenesulfonamide]: the IC50 was found to be 20.5 nM.

Regarding `CNS(=O)(=O)c1cccc(OC[C@@H](O)CNC2COC3(CCN(S(=O)(=O)c4cc(C)ccc4C#N)CC3)C2)c1` (stereo partly drawn) [Compound 180, 3-((2S)-3-(8-(2-cyano-5-methylphenylsulfonyl)-1-oxa-8-azaspiro[4.5]decan-3-ylamino)-2-hydroxypropoxy)-N-methylbenzenesulfonamide], the IC50 was determined as 29.8 nM.

For the molecule `CN1CCOc2ncc(S(=O)(=O)N3CCC4(CC3)C[C@@H](NC[C@H](O)COc3cccc(S(=O)(=O)N[C@@H]5CCCC[C@@H]5O)c3)CO4)cc21` [Compound 435, 3-((S)-2-hydroxy-3-((R)-8-(1-methyl-2,3-dihydro-1H-pyrido[2,3-b][1,4]oxazin-7-ylsulfonyl)-1-oxa-8-azaspiro[4.5]decan-3-ylamino)propoxy)-N-((1R,2S)-2-hydroxycyclohexyl)benzenesulfonamide], the IC50 came out at 191 nM.

`CNS(=O)(=O)c1cccc(OC[C@@H](O)CNC2COC3(CCN(S(=O)(=O)c4ccc(OC)c5nonc45)CC3)C2)c1` (stereo partly drawn) [Compound 173, 3-((2S)-2-hydroxy-3-(8-(7-methoxybenzo[c][1,2,5]oxadiazol-4-ylsulfonyl)-1-oxa-8-azaspiro[4.5]decan-3-ylamino)propoxy)-N-methylbenzenesulfonamide]: the IC50 came out at 29 nM.
